Data on 21 compounds can be found in PubChem BioAssay AID248 (DTP/NCI, 2004).

Inconclusive results and toxic doses are left out.

This assay relates to L1210 leukemia ip in BDF1 mice, survival T/C. The assay can be described thus: NCI In Vivo Anticancer Drug Screen. Data for tumor model L1210 Leukemia (intraperitoneal) in B6D2F1 (BDF1) mice. Conditions: endpoint: mean survival time, higher = longer survival. In a few lines: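 Transplantable tumor model; survival measured in treated vs vehicle control mice. Value = treated/control.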

[1] abbreviates: dose: 100.0 mg/kg/injection, schedule: Q04DX002 (ip), vehicle: saline.
[2] abbreviates: dose: 200.0 mg/kg/injection, schedule: Q04DX002 (ip), vehicle: saline.
[3] abbreviates: dose: 100.0 mg/kg/injection, schedule: Q01DX001 (ip), vehicle: saline.
The mark [4] stands for this setting: dose: 200.0 mg/kg/injection, schedule: Q01DX001 (ip), vehicle: saline.
Where [5] appears, read: dose: 400.0 mg/kg/injection, schedule: Q01DX001 (ip), vehicle: saline.
Where [6] appears, read: dose: 100.0 mg/kg/injection, schedule: Q01DX009 (ip), vehicle: saline.
Where [7] appears, read: dose: 200.0 mg/kg/injection, schedule: Q01DX009 (ip), vehicle: saline.
Where [8] appears, read: dose: 400.0 mg/kg/injection, schedule: Q01DX009 (ip), vehicle: saline.

For the compound `CCSc1ncc(Br)c(Sc2nc(N)nc3nc[nH]c23)n1`, the T/C was 107 % of control (dose: 1.5 mg/kg/injection, schedule: Q01DX Z (ip), vehicle: carboxymethylcellulose (CMC)); 150 % of control (dose: 12.0 mg/kg/injection, schedule: Q01DX Z (ip), vehicle: carboxymethylcellulose (CMC)); 121 % of control (dose: 25.0 mg/kg/injection, schedule: Q01DX001 (ip), vehicle: carboxymethylcellulose (CMC)); 86 % of control (dose: 25.0 mg/kg/injection, schedule: Q01DX Z (ip), vehicle: methylcellulose (MC)); 116 % of control (dose: 200.0 mg/kg/injection, schedule: Q01DX001 (ip), vehicle: carboxymethylcellulose (CMC)).

`COc1ccc(C)nn1`: the T/C under setting [1] was 106 % of control; the T/C under setting [2] was 106 % of control; the T/C (dose: 400.0 mg/kg/injection, schedule: Q04DX002 (ip), vehicle: saline) was 122 % of control.

On to `Cc1ccccc1N=Nc1c(O)n(-c2ccc(I)cc2)c(=S)n(-c2ccccc2)c1=O`, for which the T/C is, setting by setting: (dose: 37.5 mg/kg/injection, schedule: Q01DX001 (ip), vehicle: Klucel (hydroxypropylcellulose) (HPC)) 103 % of control; (dose: 75.0 mg/kg/injection, schedule: Q01DX001 (ip), vehicle: Klucel (hydroxypropylcellulose) (HPC)) 113 % of control; (dose: 150.0 mg/kg/injection, schedule: Q01DX001 (ip), vehicle: Klucel (hydroxypropylcellulose) (HPC)) 105 % of control.

Consider `Cn1c(=O)cc(C=Nc2ccc(S(N)(=O)=O)cc2)c2ccccc21`, for which the T/C was 102 % of control under setting [3], 100 % of control under setting [4] and 98 % of control under setting [5].

With `O=C1Nc2ccccc2C1=Nc1ccc(F)cc1`, the T/C is 96 % of control under setting [3], 92 % of control under setting [4] and 94 % of control under setting [5].

`Cc1cc(N(CCOS(C)(=O)=O)CCOS(C)(=O)=O)ccc1C=Nc1ccc(-c2csc(Cc3ccccc3)n2)cc1`: the T/C was 105 % of control (dose: 6.25 mg/kg/injection, schedule: Q01DX009 (ip), vehicle: Klucel (hydroxypropylcellulose) (HPC)); 110 % of control (dose: 12.5 mg/kg/injection, schedule: Q01DX009 (ip), vehicle: Klucel (hydroxypropylcellulose) (HPC)); 122 % of control (dose: 25.0 mg/kg/injection, schedule: Q01DX009 (ip), vehicle: Klucel (hydroxypropylcellulose) (HPC)).

Consider `CCOC(=O)c1cc(Br)cc(Br)c1N/N=[N+](\C)[O-]`, for which the T/C by setting is: (dose: 50.0 mg/kg/injection, schedule: Q01DX009 (ip), vehicle: saline with Tween-80) 105 % of control; (dose: 100.0 mg/kg/injection, schedule: Q01DX009 (ip), vehicle: saline with Tween-80) 98 % of control; (dose: 200.0 mg/kg/injection, schedule: Q01DX009 (ip), vehicle: saline with Tween-80) 110 % of control.

In the case of `O=C(Nc1ccccc1C(F)(F)F)N(CCO)C1CCCCC1`, the T/C reads like this: (dose: 100.0 mg/kg/injection, schedule: Q01DX009 (ip), vehicle: Klucel (hydroxypropylcellulose) (HPC)) 100 % of control; (dose: 200.0 mg/kg/injection, schedule: Q01DX009 (ip), vehicle: Klucel (hydroxypropylcellulose) (HPC)) 103 % of control; (dose: 400.0 mg/kg/injection, schedule: Q01DX009 (ip), vehicle: Klucel (hydroxypropylcellulose) (HPC)) 101 % of control.

Consider `CC(C)OC(=O)Cc1cccc2ccccc12`, for which the T/C is, setting by setting: (dose: 222.0 mg/kg/injection, schedule: Q01DX Z (ip), vehicle: saline) 98 % of control; (dose: 333.0 mg/kg/injection, schedule: Q01DX Z (ip), vehicle: saline) 88 % of control; (dose: 500.0 mg/kg/injection, schedule: Q01DX Z (ip), vehicle: saline) 95 % of control.

`COC(=O)c1cc(C)cc(N)c1C`: the T/C is 102 % of control under setting [3], 109 % of control under setting [4] and 104 % of control under setting [5].

For `O=C(Nc1ccccc1C(F)(F)F)c1ccccc1Cl`, the T/C runs as follows: (dose: 100.0 mg/kg/injection, schedule: Q01DX009 (ip), vehicle: acetone) 98 % of control; (dose: 200.0 mg/kg/injection, schedule: Q01DX009 (ip), vehicle: acetone) 93 % of control; (dose: 400.0 mg/kg/injection, schedule: Q01DX009 (ip), vehicle: acetone) 93 % of control.

With `c1ccc(C2=Nc3ccccc3NC2c2ccccc2)cc1` (configuration not stated), the T/C is 100 % of control (dose: 50.0 mg/kg/injection, schedule: Q04DX003 (ip), vehicle: Klucel (hydroxypropylcellulose) (HPC)); 89 % of control (dose: 100.0 mg/kg/injection, schedule: Q04DX003 (ip), vehicle: Klucel (hydroxypropylcellulose) (HPC)); 98 % of control (dose: 200.0 mg/kg/injection, schedule: Q04DX003 (ip), vehicle: Klucel (hydroxypropylcellulose) (HPC)).

Take `N#CC1C2C=CC(CC2)C1C#N` (configuration not stated) (tested in a mixture with another compound): the T/C (dose: 0.25 mg/kg/injection, schedule: Q01DX Z (ip), vehicle: carboxymethylcellulose (CMC)) is 95 % of control; the T/C (dose: 0.5 mg/kg/injection, schedule: Q01DX Z (ip), vehicle: carboxymethylcellulose (CMC)) was 93 % of control; the T/C (dose: 1.0 mg/kg/injection, schedule: Q01DX Z (ip), vehicle: carboxymethylcellulose (CMC)) is 95 % of control; the T/C (dose: 2.0 mg/kg/injection, schedule: Q01DX Z (ip), vehicle: carboxymethylcellulose (CMC)) was 93 % of control; the T/C (dose: 5.0 mg/kg/injection, schedule: Q01DX001 (ip), vehicle: saline) is 98 % of control; the T/C (dose: 10.0 mg/kg/injection, schedule: Q01DX001 (ip), vehicle: saline) is 95 % of control.

`CCOC(=O)CC1(C)NC(=O)NC1=O` (configuration not stated): the T/C reads like this: under setting [6], 104 % of control; under setting [7], 90 % of control; under setting [8], 98 % of control.

As for `CC1CCC2(CC1=O)C(C)CC(=O)C2C(C)C` (configuration not stated), the T/C was 94 % of control under setting [6], 102 % of control under setting [7] and 98 % of control under setting [8].

For `NCCSSCCN`, the T/C is 98 % of control (dose: 24.0 mg/kg/injection, schedule: Q04DX002 (ip), vehicle: saline with Tween-80); 95 % of control (dose: 60.0 mg/kg/injection, schedule: Q04DX002 (ip), vehicle: saline with Tween-80); 93 % of control under setting [1]; 91 % of control (dose: 150.0 mg/kg/injection, schedule: Q04DX002 (ip), vehicle: saline with Tween-80); 107 % of control under setting [2].

As to `O=c1/c(=C\c2ccc(Cl)c(Cl)c2)sc2n1CCN=2`, the T/C under setting [3] is 86 % of control and the T/C under setting [5] was 93 % of control.

Regarding `Nc1ccc([I+]c2ccccc2)cc1`, the T/C is 101 % of control (dose: 50.0 mg/kg/injection, schedule: Q01DX001 (ip), vehicle: saline) and 103 % of control under setting [3].

As to `Cc1cc(=O)cc(Nc2ccccc2)o1`, the T/C reads like this: (dose: 100.0 mg/kg/injection, schedule: Q04DX002 (ip), vehicle: Klucel (hydroxypropylcellulose) (HPC)) 93 % of control; (dose: 200.0 mg/kg/injection, schedule: Q04DX002 (ip), vehicle: Klucel (hydroxypropylcellulose) (HPC)) 90 % of control; (dose: 400.0 mg/kg/injection, schedule: Q04DX002 (ip), vehicle: Klucel (hydroxypropylcellulose) (HPC)) 101 % of control.

For the compound `C/C=C\c1ccc(OC(=O)c2ccc([N+](=O)[O-])cc2)c(OC)c1`, the T/C by setting is: (dose: 100.0 mg/kg/injection, schedule: Q01DX001 (ip), vehicle: other) 97 % of control; (dose: 200.0 mg/kg/injection, schedule: Q01DX001 (ip), vehicle: other) 106 % of control; (dose: 400.0 mg/kg/injection, schedule: Q01DX001 (ip), vehicle: other) 94 % of control.

Take `O=C(C#Cc1ccccc1)c1ccccc1`: the T/C by setting is: (dose: 5.0 mg/kg/injection, schedule: Q01DX009 (ip), vehicle: Klucel (hydroxypropylcellulose) (HPC)) 98 % of control; (dose: 5.0 mg/kg/injection, schedule: Q04DX003 (ip), vehicle: Klucel (hydroxypropylcellulose) (HPC)) 101 % of control; (dose: 10.0 mg/kg/injection, schedule: Q01DX009 (ip), vehicle: Klucel (hydroxypropylcellulose) (HPC)) 96 % of control; (dose: 10.0 mg/kg/injection, schedule: Q04DX003 (ip), vehicle: Klucel (hydroxypropylcellulose) (HPC)) 103 % of control; (dose: 20.0 mg/kg/injection, schedule: Q01DX001 (ip), vehicle: Klucel (hydroxypropylcellulose) (HPC)) 96 % of control; (dose: 20.0 mg/kg/injection, schedule: Q01DX009 (ip), vehicle: Klucel (hydroxypropylcellulose) (HPC)) 102 % of control. Also, under “dose: 20.0 mg/kg/injection, schedule: Q04DX003 (ip), vehicle: Klucel (hydroxypropylcellulose) (HPC)”, the T/C was 104 % of control.
